Consider one compound from patent US20120077836A1, “METHODS OF ADMINISTERING (4AR,10AR)-1-N-PROPYL-1,2,3,4,4A,5,10,10A-OCTAHYDROBENZO [G] QUINOLINE-6,7-DIOL AND RELATED COMPOUNDS ACROSS THE ORAL MUCOSA, THE NASAL MUCOSA OR THE SKIN AND PHARMACEUTICAL COMPOSITIONS THEREOF” (priority 2009, published 2012).

In test [1] the test system is rats with unilateral 6-OHDA lesions. The test can be described thus: Rotation response in 6-OHDA rats after buccal delivery. The class given is in vivo, rat.
The subject of another test is 6-OHDA rats. Description: Reversal of L-DOPA-induced dyskinesias in 6-OHDA rats (AIMS). The class given is in vivo, rat. An excerpt:
Animals were observed on Days 1, 3 and 5 and AIMS were scored. The day 5 scores were then used to separate the animals into three groups of 6 animals each. Group 1 continued with daily L-DOPA treatment. […] Treatment continued daily for 10 days and the amount of dyskinesia was scored on days 1, 5, 9 and 10.

Where a name gives a salt, the structure may show the parent alone.

Turning to `CCCN1CCC[C@@H]2Cc3c(ccc(O)c3O)C[C@H]21` [compound 10, (4aR,10aR)-1-n-Propyl-1,2,3,4,4a,5,10,10a-octahydro-benzo[g]quinoline-6,7-diol hydrobromide], the “mean number of rotations over 3 h” value in test [1] (0.1 mg/kg buccally) is 1203. Moreover, the induction of rotation result in test [1] (apomorphine subcutaneous, compound 10 buccal) is on record as “induced circling behavior”. For the same compound, the “dyskinesias versus other groups (two-way repeated measures ANOVA)” value with 6-OHDA rats (L-DOPA-primed 6-OHDA rats, 10 days treatment) was “significantly fewer dyskinesias than both the pramipexole group and the L-DOPA/Benserazide group”. Further, the “mean AIM score (days 1, 5, 9, 10)” value with 6-OHDA rats (after 7 days L-DOPA/Benserazide priming, once daily days 1-10: L-DOPA/Benserazide 6/15 mg/kg SC, compound 10 0.0013 mg/kg SC, pramipexole […] SC) was found to be 44.
